Test [1] deals with T1, 5-Lipoxygenase (Rattus norvegicus, UniProt P12527).
T1 sequence (P12527 1-673): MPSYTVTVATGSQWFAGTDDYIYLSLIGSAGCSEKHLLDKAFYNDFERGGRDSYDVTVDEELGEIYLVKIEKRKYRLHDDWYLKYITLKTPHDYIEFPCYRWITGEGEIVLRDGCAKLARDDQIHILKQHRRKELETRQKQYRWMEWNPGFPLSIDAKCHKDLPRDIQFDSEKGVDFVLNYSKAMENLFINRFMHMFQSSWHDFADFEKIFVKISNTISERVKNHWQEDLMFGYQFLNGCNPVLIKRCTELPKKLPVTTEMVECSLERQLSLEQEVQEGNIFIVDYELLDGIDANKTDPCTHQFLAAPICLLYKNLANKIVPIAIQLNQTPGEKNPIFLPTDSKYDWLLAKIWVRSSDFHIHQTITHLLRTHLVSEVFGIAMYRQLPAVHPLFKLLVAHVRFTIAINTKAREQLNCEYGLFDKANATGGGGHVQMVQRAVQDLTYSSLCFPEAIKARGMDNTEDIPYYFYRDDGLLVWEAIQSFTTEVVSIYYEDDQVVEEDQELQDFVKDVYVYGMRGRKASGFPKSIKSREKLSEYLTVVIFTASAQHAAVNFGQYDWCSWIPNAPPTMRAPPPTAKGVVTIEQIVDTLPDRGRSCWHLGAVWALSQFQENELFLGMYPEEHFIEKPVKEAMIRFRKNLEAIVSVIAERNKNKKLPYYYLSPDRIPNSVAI
Kind of test: 5-lipoxygenase inhibition assay (20,000 xg supernatant of RBL cells). The format is biochemical. More on the design: activity contained in the 20,000 xg supernatant from cultured rat basophilic leukemia (RBL) cells; endogenous in cells; host or cells: RBL (rat basophilic leukemia) cells, 20,000 xg supernatant. Particulars: Table 4, read-out: 5-LO % Inhibition at 30 μM. The protocol:
PROTOCOL FOR 5-LIPOXYGENASE INHIBITION ASSAY
Incubations contained 5% (v/v) RBL 20,000 xg supernatant in assay buffer (10 mM BES, 10 mM PIPES, 1 mM EDTA, 0.75 mM CaC12, 1 mMATP, 100 mMNaCl, pH 6.8). DMSO vehicle (2% v/v) with and without inhibitors is preincubated with the enzyme for 20 minutes at 37° C. before initiating the 5-lipoxygenase catalyzed reaction by adding […] [^14 C]arachidonic acid (55.8 mCi/mmol, New England Nuclear, Boston, Mass.) dissolved in 5 μL 0,028% (v/v) aqueous NH4 OH. After 20 minutes of additional incubation at 37° C., reactions are terminated by the addition of three volumes of methanol containing 100 μg triphenylphosphine. Samples are then analyzed by HPLC with radiometric detection for 5-1ipoxygenase reaction products.
All treatments are evaluated in duplicate and percent inhibition is computed by comparing the products formed in treatment incubations to the mean product formation in the vehicle control group.

Test [2] deals with T1, 5-Lipoxygenase. In words: ARBL: 5-lipoxygenase (LTB4) in RBL-1 cells. More on the design: endogenous in cells; host or cells: RBL-1 (rat basophilic leukemia). The format is cell-based. Particulars: Table 4; ARBL/ARBC IC50 (μM) or % inhibition at 10 μM; RBL-1 cells, A23187. On the procedure: The testing methods used are described as follows:
The rat basophilic leukemia cell line (RBL-1) was obtained from the American Type Culture Collection (Rockville, Md.).
Radioimmunoassay (RIA) kits of LTB4 and PGF2α were obtained from Arnersham (Arlington Heights, IL) and Seragen (Boston, Mass.), respectively.
All tissue culture media were obtained from GIBCO (Grand Island, N.Y.).
RBL-1 cells are grown in suspension culture in Eagle's minimum essential medium supplemented with 12% fetal bovine serum at 37° C. in an incubator supplied with air-5% carbon dioxide. Cells are harvested by centrifugation. They are washed with cold phosphate-buffered saline, pH 7.4 (PBS; NaCl, 7.1 g; Na2 HPO4, 1.15 g; KH2 PO4, 0.2 g; and KCl, 0.2 g/L). Cells are finally suspended in PBS containing 1.0 mM calcium at a density of 2×10^6 cells/mL. Cells are incubated with and without test agent (in DMSO) (1% DMSO is without effect on arachidonic acid metabolism) for 10 minutes at room temperature. Calcium ionophore A23187 (5 μM) is added and cells are incubated for 7 minutes at 37° C. The reaction is stopped by chilling the tubes on ice for 10 minutes. Cells are separated by centrifugation and the supernatant is stored at -20° C. Aliquots (100 μL) are analyzed for LTB4 and PGF2α using radioimmunoassay kits as provided by the supplier.

The subject of test [3] is human neutrophil adhesion to TNFα, IL-1α, and LPS stimulated human umbilical vein endothelial cells. Kind of test: Modified method: inhibition of human neutrophil adhesion to TNF-stimulated HUVEC (calcein fluorescence). The class given is cell-based. Also noted: inhibition: dose or concentration left out as unconfirmed. Particulars: for inhibition at 33.3 µM: Table 2, tested at a concentration of 33.3 μM (footnote a); for inhibition: Table 3. An excerpt:
MODIFIED METHOD FOR DETERMINING THE INHIBITION OF HUMAN NEUTROPHIL ADHESION TO TNFα, IL-1α, AND LPS STIMULATED HUMAN UMBILICAL VEIN ENDOTHELIAL CELLS BY 3-ALKOXY-BENZO[b]THIOPHENE-2-CARBOXAMIDES
The previous assay using ^51 Cr labeled human neutrophils has been modified. The neutrophils are now labeled with the fluorescent dye calcein. The current method allows for quantification of neutrophil adherence by fluorescence spectroscopy.
Second passage HUVEC (Clonetics Corporation, San Diego, Calif., CC-2617) were seeded into Corning (Corning glass works, Corning, N.Y.) 96-well cell culture plates at approximately 5×10^3 cells/well and grown to confluency in supplemented endothelial basal medium (EBM, MCDB-131, Clonetics, 10 ng/mL EGF, 1 μg/mL hydrocortisone, 0.4% bovine brain extract, 5% Fetal Bovine Serum). One day prior to running the assay, typically 3 days postseeding, the cultures were refed with 0.2 mL/well supplemented EBM (S-EBM).
Preparation of Test Compounds
Test compounds were prepared as 10 mL stock solutions at a concentration of 1.0 mM. The compounds were initially solubilized in 0.1 mL DMSO followed by the addition of 9.9 mL S-EBM. The drug preparations were then diluted in one step to a concentration of 66.6 μM. Solubilizations and dilutions were performed in polystyrene containers.
Isolation of Human Neutrophils
Human neutrophils were isolated from anticoagulant-treated venous blood obtained from healthy volunteers according to the method of Ferrante and Thong. The cell preparations consisted of greater than 98% neutrophils.
Recombinant human tumor necrosis factor-α (TNF, Genzyme, Boston, Mass., code TNF-H) was prepared at 400 U/mL in S-EBM. Stock TNF was prepared to 20,000 U/mL in Delbecco's phosphate-buffered saline (PBS, Gibco, Grand Island N.Y.) plus 0.1% BSA and stored at -70° C. […] This was accomplished by adding 0.1 mL of 400 U/mL TNF and 0.1 mL 66.6 μM test compound. These additions were done slowly as to not disrupt the HUVEC monolayer. Each compound was tested in six wells. Unstimulated (vehicle control) and TNF-stimulated without test compound treatments were also run in each plate.
One hour prior to adding the neutrophils to the HI/VEC, neutrophils (5×10^6 /mL) were labeled for 30 minutes at 37° C. with 5 μM calcine-AM (Molecular Probes, Eugene, OR) in Hanks' balanced salt solution plus 0.45% BSA. Stock calcein was prepared to 5 mM in anhydrous DMSO and stored desiccated at -20° C. At the end of the incubation the cells were washed two times in cold HBSS and resuspended to a final concentration of 1×10^6 cells/mL in unsupplemented EBM.
Addition of Neutrophils to HUVEC
At the end of the 4-hour stimulation and immediately prior to the addition of the neutrophils to the HUVEC monolayer, the plates were washed with 0.2 mL warm unsupplemented EBM to remove TNF and drug. Neutrophils (1×10^5 cells) were slowly added to each of the treated wells and incubated for 30 minutes at 37° C. At the end of the incubation the plates were washed two times with 0.2 mL warm unsupplemented EBM followed by a final addition of 0.1 mL for plate scanning.
Determination of Relative Fluorescence
The relative fluorescence was determined using a Millipore Cytofluor 2300 system (excitation=480, emission=530, sensitivity=4).
Results were expressed as means of percent inhibition of TNF-stimulated adherence, using the following equation. [formula] […] Linear regression analysis of the means of the inhibition values were used to determine the IC50.
The compounds of Examples 36-44 in Table 2 and 45-53 in Table 3 were tested according to the modified method.

For 13 compounds, inhibition and IC50 results are on record in US5356926A, “3-alkyloxy-, aryloxy-, or arylalkyloxy-benzo [β]thiophene-2-carboxamides as inhibitors of cell adhesion” (Warner-Lambert Company, priority 1993, dated 1994).

pIC50: −log10 of the molar value.

On to `COc1ccc2sc(C(N)=O)c(OC(C)C)c2c1` [Example 1, 5-methoxy-3-(1-methylethoxy)benzo[b]thiophene-2-carboxamide], for which the inhibition at 30 µM in test [1] was 13%. In test [2], this compound showed an IC50 of 36 µM.

In the case of `CCOC(=O)c1ccc(NC(=O)c2sc3ccc(OC)cc3c2OC(C)C)nc1` [Example 36, Ethyl 6-[[[5-methoxy-3-(1-methylethoxy)benzo[b]thien-2-yl]carbonyl]amino]-3-pyridinecarboxylate], the inhibition at 33.3 µM in test [3] was 26%. In the case of `COc1ccc2sc(C(=O)Nc3ccc(C(=O)O)cn3)c(OC(C)C)c2c1` [Example 37], the inhibition at 33.3 µM in test [3] is 8%. Take `CCOC(=O)Cc1csc(NC(=O)c2sc3ccc(OC)cc3c2OC(C)C)n1` [Example 38, Ethyl 2-[[[5-methoxy-3-(1-methylethoxy)benzo[b]thien-2-yl]carbonyl]amino]-4-thiazoleacetate]: in test [3], the inhibition at 33.3 µM is 72%. Consider `COc1ccc2sc(C(=O)Nc3nc(CC(=O)O)cs3)c(OC(C)C)c2c1` [Example 39, 2-[[[5-Methoxy-3-(1-methylethoxy)benzo[b]thien-2-yl]carbonyl]amino]-4-thiazoleacetic acid], for which the inhibition at 33.3 µM in test [3] is 26%. With `COc1ccc2sc(C(=O)Nc3ccc(C(=O)O)cc3OC)c(OC(C)C)c2c1` [Example 40, 3-Methoxy-4-[[[5-methoxy-3-(1-methylethoxy)benzo [b]thien-2-yl]carbonyl]amino]benzoic acid], in test [3], the inhibition at 33.3 µM is 34%. With `COc1ccc2sc(C(=O)Nc3ccc(C(=O)O)c(O)c3)c(OC(C)C)c2c1` [Example 42, 2-Hydroxy-4-[[[5-methoxy-3-(1-methylethoxy)benzo[b]thien-2-yl]carbonyl]arnino]benzoic acid], the pIC50 in test [3] (Table 2, footnote c not defined) is 4.47. For `CNC(=O)c1c(OC(C)C)c2cc(OC)ccc2[s+]1[O-]` (centres unmarked) [Example 46, 5-Methoxy-N-methyl-3-(1-methylethoxy)benzo[b]thiophene-2-carboxamide-1-oxide], the inhibition in test [3] is 43%.

Take `COc1ccc2c(c1)c(OC(C)C)c(C(=O)NCc1ccccc1)[s+]2[O-]` (centres unmarked) [Example 47, 5-Methoxy-3-(1-methylethoxy)-N-(phenylmethyl)benzo[b]thiophene-2-carboxamide-1-oxide]: the inhibition in test [3] is 15%. The same measure, in the same setting: as for `CC(C)Oc1c(C(N)=O)[s+]([O-])c2ccc(O)cc12` (centres unmarked) [Example 49, 5-Hydroxy-3-(1-methylethoxy)benzo[b]thiophene-2-carboxaraide-1-oxide], the figure is 79%; as for `Cc1ccc2c(c1)c(OC(C)C)c(C(N)=O)[s+]2[O-]` (centres unmarked) [Example 50, 5-Methyl-3-(1-methylethoxy)benzo[b]thiophene-2-carboxaraide-1-oxide], 69%. In the case of `COc1ccc2c(c1)c(Oc1ccccc1)c(C(N)=O)[s+]2[O-]` (centres unmarked) [Example 51, 5-Methoxy-3-phenoxybenzo[b]thiophene-2-carboxamide-1-oxide], in test [3], the inhibition was 15%.

Turning to `COc1ccc2c(c1)c(OC)c(C(N)=O)[s+]2[O-]` (centres unmarked) [Example 53, 3,5-Dimethoxybenzo[b]thiophene-2-carboxamide-1-oxide], the inhibition in test [3] was 40%.

Usually inhibition stands for the drop in the measured response relative to a control, in per cent. For orientation: IC50 means the point on the concentration scale where inhibition reaches its midpoint. A word on the pIC50: it is the IC50 on a negative log10 scale, so that one unit is a factor of ten.
